Patent US20240092779A1, “USP1 INHIBITORS AND USES THEREOF” (Zentaur Therapeutics USA Inc., priority 2022, published 2024)

Key:
MDA-MB-436 cells = test: CTG Protocol (MDA-MB-436 GI50), antiproliferative activity; type: cell-based, human; conditions: MDA-MB-436 cells (BRCA1 mutation), 7-day incubation, CellTiter-Glo
Experimental: CTG Protocol (MDA-MB-436 GI50)
Antiproliferative activity of USP1 inhibitors was determined using breast cancer cell line MDA-MB-436 that harbors BRCA1 mutation. MDA-MB-436 cells (ATCC, HTB-130) was seeded with a seeding density of 1000 cells per well and 95 μL DMEM medium (Gibco, 10566016) into 96-well cell plates (Corning, 3610), and incubated overnight at 37° C. and 5% CO2. Compounds were solubilized in DMSO (Solarbio, D8371) as 10 mM stock solution, and then series diluted (3 folds) with DMSO for 9-point dose-response testing. The resulted series dilutions were then jump-diluted 50-fold by cell culture medium to afford the 20×stock solutions (containing 2% DMSO). Treatment was initiated by adding 5 μL of 20×stock solution to the assay plate and incubated at 37° C. and 5% CO2. At the end of 7-day incubation, cell assay plates were removed from incubation and equilibrated to room temperature (20 min). Then 100 μL of CellTiter-Glo (Promega, G9243) reagent, prepared per manufacturer's protocol, was added to each well, and the resulted plates were centrifuged 1,000 rpm for 1 minute, incubated at room temperature in the dark for 20 minutes, sealed with Perkin Elmer sticky film, and the luminescence signal read by Envision (Perkin Elmer).
Data analysis • a) % Inhibition was calculated using following equation: […]
X: compound concentration; Y: % Inhibition
(§1) Certain compounds were tested in the assays.

HCC1806 Ub-PCNA (USP1) = test: USP1 Western Blot Protocol (HCC1806 Ub-PCNA); type: cell-based; conditions: HCC1806 cells, 4 hours
From the text: USP1 Western Blot Protocol (HCC1806 Ub-PCNA)
USP1 is a deubiquitinase that catalyze the hydrolysis of iso-peptide bond between ubiquitin and the substrate proteins. Inhibition of USP1 activity results in accumulation of mono-ubiquitinated substrate such as Ub-PCNA. A cell assay was set up to determine the cellular potency of USP1 compounds by monitoring the accumulation of Ub-PCNA. The signal intensity was detected by a specific Ub-PCNA antibody through Western-blot analysis.
The assay was initiated by seeding HCC1806 cells (ATCC, CRL-2335) into 6-well plates (Corning, 3516), with a seeding density of 3×10^5 cells per well and 2 mL RPMI 1640 culture medium (Gibco, 11875119). The plates were incubated overnight at 37° C. and 5% CO2. Compounds, solubilized in DMSO (Solarbio, D8371) as 1 mM stock solution, were diluted in 4-fold steps for 5-cencentration point dose response plus a no-compound DMSO control. Diluted compounds (2 μL) were transferred into assay wells (with a final DMSO concentration of −0.1%) and the resulted assay plates incubated at 37° C. and 5% CO2 for 4 hours. After aspiration of culture medium, 100 μL of 4° C. RIPA lysis buffer (Boston BioProducts, BP-115D) supplemented with vendor recommended concentrations of protease (Roche, 4693116001) and phosphatase (Roche, 4906837001) inhibitor, was added to each well and incubated for 10 minutes on the ice. Cells were scrapped loose from the bottom of well with a scraper (Corning, 3008), transferred into a 600 μL EP tube, sonicated using Ultrasound (Qsonica, Q800R3, with 30% energy, 5-second pulse on/off cycles at 4° C., for total 2 minutes), centrifuged 13,000 rpm for 15 minutes at 4° C., and then the supernatant transferred to a new 600 μL EP tube. The total protein concentration was determined using BCA kit following vendor recommended protocol (Solarbio, PC0020-500). Loading samples were prepared by diluting the total protein concentration to 1.5 μg/μL with 5 X NuPAGE SDS loading buffer (Beyotime, P0015L) and RIPA lysis buffer, and boiling at 100° C. for 5 minutes.
15 μg protein from each sample was loaded onto NuPAGE® Novex 4-12% Bis-Tris Midi Gel, 26 W (Invitrogen, WG1403BOX) and electrophoresis was run at 80 V for 30 minutes and 120 V till the end using 1x NuPAGE® MOPS SDS Running Buffer (Novex, NP0001). The gel was then transferred to nitrocellulose membrane using the dry transfer system (iBlot 2 Transfer Stacks, nitrocellulose, D323001) with a program consisting of 20 V for 1 minute, 23 V for 4 minutes and 25 V for 2 minutes. After the membrane was blocked with 5% BSA (Solarbio, A8020) in 1X TBST (CST, 9997S) for 1 hour at room temperature, specific antibodies (Ubiquityl-PCNA antibody (CST, 13439) at 1:500 dilution, PCNA antibody (Santa Cruz, sc-56) at 1:1000 dilution, and GAPDH (CST, 5174) at 1:2000 dilution in 1 X TBST containing 1% BSA) were added and incubated at room temperature for 1.5 hours. After washing the Nitrocellulose membranes with 1 X TBST for 3 times, 10 minutes each time at room temperature, fluorescently labeled secondary antibodies (anti-rabbit IgG, Licor, 926-32211; anti-mouse IgG, LI-COR, 926-68070) at 1:5000 dilution in 1 X TBST containing 1% BSA were added and incubated for 1 hour at room temperature in the dark. The membranes were then rinsed with 1 X TBST and immersed in the RO water. Imaging of band intensity was acquired with Li—COR imaging system (Li—COR, Odyssey clx ES).
Percentage of USP1 inhibition (% Vehicle) was calculated by using following equation examining Ub-PCNA upregulation:
And IC50 was calculated using four-parameter logistic fitting program • Y=Bottom+(Top-Bottom)/(1+10 {circumflex over (()}(LogIC50−X)*Hill Slope)) • X=Log of dose or concentration
as §1

SMILES	GI50 (MDA-MB-436 cells; Homo sapiens, 168 h) [nM]	IC50 (HCC1806 Ub-PCNA (USP1); Homo sapiens) [nM]	GI50 (MDA-MB-436 cells) [nM]	IC50 (HCC1806 Ub-PCNA (USP1)) [nM]
COc1ncnc(C2CC2)c1-c1ncc2nc(-c3cn(C)cn3)c(=O)n(Cc3ccc(-c4nc(C(F)(F)F)cn4C4CC4)cc3)c2n1 [Compound I-160, 8-({4-[1-Cyclopropyl-4-(Trifluoromethyl)Imidazol-2-Yl]Phenyl}Methyl)-2-(4-Cyclopropyl-6-Methoxypyrimidin-5-Yl)-6-(1-Methylimidazol-4-Yl)Pteridin-7-One]	10 to 100	10 to 100	–	–
COc1ncnc(C2CC2)c1-c1ncc2ccc(=O)n(C(C)c3ccc(-c4nc(C(F)(F)F)cn4C)cc3)c2n1 (stereo not shown) [Compound I-43, 2-(4-Cyclopropyl-6-Methoxypyrimidin-5-Yl)-8-(1-{4-[1-Methyl-4-(Trifluoromethyl)Imidazol-2-Yl]Phenyl}Ethyl)Pyrido[2,3-d]Pyrimidin-7-One]	10 to 100	10 to 100	–	–
[2H]C([2H])([2H])Oc1ncnc(C2CC2)c1-c1ncc2ccc(=O)n(C([2H])([2H])c3ccc(-c4nc(C(F)(F)F)cn4C([2H])([2H])[2H])cc3)c2n1 [Compound 57, 2-[4-cyclopropyl-6-(2H3)methoxypyrimidin-5-yl]-8-({4-[1-(2H3)methyl-4-(trifluoromethyl)imidazol-2-yl]phenyl}(2H2)methyl)pyrido[2,3-d]pyrimidin-7-one]	< 10	< 10	–	–
CCc1ncnc(C2CC2)c1-c1ncc2ccc(=O)n(Cc3ccc(-c4nc(C(F)(F)F)cn4C)cc3)c2n1 [Compound 52, 2-(4-Cyclopropyl-6-Ethylpyrimidin-5-Yl)-8-({4-[1-Methyl-4-(Trifluoromethyl)Imidazol-2-Yl]Phenyl}Methyl)Pyrido[2,3-d]Pyrimidin-7-One]	100 to 1000	100 to 1000	–	–
Cc1cnn(C(C)C)c1-c1ncc2ccc(=O)n(Cc3ccc(-c4nc(C(F)(F)F)cn4C)cc3)c2n1 [Compound I-45, 2-(2-isopropyl-4-methylpyrazol-3-yl)-8-({4-[1-methyl-4-(trifluoromethyl)imidazol-2-yl]phenyl}methyl)pyrido[2,3-d]pyrimidin-7-one]	10 to 100	10 to 100	–	–
COc1ncnc(C2CC2)c1-c1ncc2cc(-c3nccn3C)c(=O)n(Cc3ccc(-c4nc(C(F)(F)F)cn4C4CC4)cc3)c2n1 [Compound I-158]	10 to 100	10 to 100	–	–
COc1ncnc(C2CC2)c1-c1ncc2ccc(=O)n(C(C)c3ccc(-c4nc(C(F)(F)F)cn4C)cc3)c2n1 (stereo not shown) [Compound 63]	–	–	10 to 100	10 to 100
COc1nn(C)cc1-c1cc2cnc(-c3c(OC)ncnc3C3CC3)nc2n(Cc2ccc(-c3nc(C(F)(F)F)cn3C3CC3)cc2)c1=O [Compound I-164]	10 to 100	10 to 100	–	–
COc1ncnc(C2CC2)c1-c1ncc2ccc(=O)n(Cc3ccc(-c4nc(C(F)(F)F)cn4C)c(F)c3)c2n1 [Compound 72, 2-(4-Cyclopropyl-6-Methoxypyrimidin-5-Yl)-8-({3-Fluoro-4-[1-Methyl-4-(Trifluoromethyl)Imidazol-2-Yl]Phenyl}Methyl)Pyrido[2,3-d]Pyrimidin-7-One]	< 10	10 to 100	–	–
COc1ncnc(C2CC2)c1-c1ncc2cc(-c3cn(C)cn3)c(=O)n(Cc3ccc(-c4nc(C(F)(F)F)cn4C4CC4)cc3)c2n1 [Compound I-161, 8-({4-[1-cyclopropyl-4-(trifluoromethyl)imidazo]-2-yl]phenylmethyl)-2-(4-cyclopropyl-6-methoxypyrimidin-5-yl)-6-(1-methylimidazol-4-yl)pyrido[2,3-d]pyrimidin-7-one]	10 to 100	< 10	–	–
COc1ncnc(C2CC2)c1-c1ncc2cc(-c3cncc(F)c3)c(=O)n(Cc3ccc(-c4nc(C(F)(F)F)cn4C4CC4)cc3)c2n1 [Compound I-162]	10 to 100	< 10	–	–
COc1ncnc(C2CC2)c1-c1ncc2cc(-c3c(C)cnn3C)c(=O)n(Cc3ccc(-c4nc(C(F)(F)F)cn4C(C)C)cc3)c2n1 [Compound I-165, 2-(4-Cyclopropyl-6-Methoxypyrimidin-5-Yl)-6-(2,4-Dimethylpyrazol-3-Yl)-8-({4-[1-Isopropyl-4-(Trifluoromethyl)Imidazol-2-Yl]Phenyl}Methyl)Pyrido[2,3-d]Pyrimidin-7-One]	10 to 100	10 to 100	–	–
COc1ncnc(C2CC2)c1-c1ncc2cc(-c3nnc(C)o3)c(=O)n(Cc3ccc(-c4nc(C(F)(F)F)cn4C4CC4)cc3)c2n1 [Compound I-154]	10 to 100	10 to 100	–	–
COc1ncnc(C2CC2)c1-c1ncc2ccc(=O)n(C(C)c3ccc(-c4nc(C(F)(F)F)cn4C)cc3)c2n1 (stereo not shown) [Compound 62]	–	–	10 to 100	10 to 100
COc1ncnc(C2CC2)c1-c1ncc2cc(-c3cnn(C)c3)c(=O)n(Cc3ccc(-c4nc(C(F)(F)F)cn4C)cc3)c2n1 [Compound 64]	10 to 100	10 to 100	–	–
COc1ncnc(C2CC2)c1-c1ncc2ccc(=O)n(Cc3ccc(-c4ncc(F)cc4OC(C)C)cc3)c2n1 [Compound 67, 2-(4-cyclopropyl-6-methoxypyrimidin-5-yl)-8-{[4-(5-fluoro-3-isopropoxypyridin-2-yl)phenyl]methyl}pyrido[2,3-d]pyrimidin-7-one]	10 to 100	10 to 100	–	–
COc1ncnc(C2CC2)c1-c1ncc2ccc(=O)n(Cc3ccc(-c4nc(C(F)(F)F)cn4C)cc3F)c2n1 [Compound 71, 2-(4-Cyclopropyl-6-Methoxypyrimidin-5-Yl)-8-({2-Fluoro-4-[1-Methyl-4-(Trifluoromethyl)Imidazol-2-Yl]Phenyl}Methyl)Pyrido[2,3-d]Pyrimidin-7-One]	10 to 100	10 to 100	–	–
COc1ncnc(C2CC2)c1-c1ncc2cc(C)c(=O)n(Cc3ccc(-c4nc(C(F)(F)F)cn4C)cc3)c2n1 [Compound 78, 2-(4-cyclopropyl-6-methoxypyrimidin-5-yl)-6-methyl-8-({4-[1-methyl-4-(trifluoromethyl)imidazo]-2-yl]phenylmethyl)pyrido[2,3-d]pyrimidin-7-one]	–	–	10 to 100	10 to 100
COc1ncnc(C2CC2)c1-c1ncc2ccc(=O)n(Cc3ccc(-c4nc(C(F)(F)F)c[nH]4)cc3)c2n1 [Compound 58, 2-(4-Cyclopropyl-6-Methoxypyrimidin-5-Yl)-8-({4-[4-(Trifluoromethyl)-1H-Imidazol-2-Yl]Phenyl}Methyl)Pyrido[2,3-d]Pyrimidin-7-One]	10 to 100	–	–	–
